For the assay, the system named is CEM cells HIV-1 protection, formazan growth assay. Kind of assay: NCI AIDS Antiviral Assay. The following applies: for IC50: measured here: growth of uninfected CEM cells. A digest of the protocol:
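Human CEM cells, uninfected and HIV-1-infected, exposed to five drug concentrations; growth measured by soluble formazan assay and scored as percent protection from infection, with protecting compounds retested.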

“And” between values parts separate entries of the source, which are not always exact repeats. Equal entries are not always repeated. The source made the active and inactive calls.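 The calls were made as follows: active = compounds giving half or more protection of infected cells from virus-caused growth loss, again on retest; inactive = the rest.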 Where a SMILES comes first, the peptide text is derived from it.

Regarding `CCOC(=O)C(=Cn1c(=S)[nH]c2ccc([N+](=O)[O-])cc21)C(=O)OCC`, the EC50 was above 200 µM and the half-inhibitory concentration (IC50) came out at 77.6 µM. The matching figures for `Cc1c(C(=O)CC(=O)C(=O)NC2C3CC4CC(C3)CC2C4)[n+](=O)c2ccccc2n1[O-]` (stereo not given): above 12.3 µM and above 12.3 µM. The matching figures for `CCC(C)C(NC(=O)CNC(=O)C(Cc1cnc[nH]1)NC(=O)C(NC(=O)C(CS)NC(=O)C(CCC(N)=O)NC(=O)C(NC(=O)C(NC(=O)C(CO)NC(=O)C(NC(=O)C(CC(N)=O)NC(=O)C(NC(=O)C(CO)NC(=O)C1CCCN1C(=O)CNC(=O)C(NC(=O)CN)C(C)O)C(C)O)C(C)C)C(C)O)C(C)C)C(C)O)C(=O)NC(CCCN=C(N)N)C(N)=O` (stereo not given) (H-GTGPSTNVSTVQCTHGIR-NH2; configuration not given here): above 50.1 µM and above 50.1 µM.

Consider `OC(C/C=N/N=C/CC(O)(C(F)(F)Cl)C(F)(F)Cl)(C(F)(F)Cl)C(F)(F)Cl`, for which the EC50 is above 200 µM and the 50% inhibitory concentration (IC50) was 89.1 µM. The corresponding values for `Cc1ccccc1N1C(=O)C(=O)c2cccc(C)c21` are above 200 µM and 33.1 µM. The corresponding values for `COc1ccc(/C=C/c2ccc3ccccc3n2)c(OC)c1` are above 200 µM and 12.3 µM. The corresponding values for `Cc1ccccc1N1C(=O)[N+]2(CCCCC2)N=C1[O-]` are above 955 µM and 295 µM. In the case of `CCSc1nnc(Sc2c3ccccc3nc3ccccc23)s1`, the EC50 was above 200 µM and the IC50 worked out at 2.82 µM.

In the case of `O=C(COc1ccc(Br)cc1Br)N1N=C(c2ccc([N+](=O)[O-])o2)CC1(O)c1ccccc1` (stereo not given), the EC50 was above 6.61 µM and the IC50 was above 6.61 µM. For `C=C(C)CCC(=O)[C@](C)(O)[C@H]1[C@H](O)C[C@@]2(C)[C@@H]3CCc4c(cc(OC5OC(CO)C(O)C(O)C5O)c(O)c4C)C3(C)C(=O)C[C@]12C` (stereo not given in full), the EC50 was above 200 µM and the IC50 was above 200 µM. As for `C=CCN1C(=O)CS/C1=N\NC(=O)Cc1nc2ccccc2[nH]1`, the EC50 is above 275 µM and the IC50 is above 275 µM. In the case of `C=CCN1C(=O)C(=O)N(CC=C)C(=O)C1=O`, the result was inactive. Molecule `O=C(O)C1CCCCC1c1c2ccc(=O)cc-2oc2cc(O)ccc12` (stereo not given) registered a concentration giving a half-maximal response (EC50) above 200 µM and an IC50 of 10.7 µM. The matching figures for `C=C1CC(c2ccc(O)c(OC)c2)Oc2c(OC)cccc21` (stereo not given): above 316 µM and 32.4 µM. The matching figures for `CCOC(=O)Nc1nc2cc(C(=O)OC)n(C)c2s1`: above 200 µM and above 200 µM.

As to `CCOC(=O)C1=C2c3cccnc3-c3ccccc3N2C(C(=O)OCC)C1C(=O)OCC` (stereo not given), the result was inactive. With `CC(C)[C@H]1CO[C@]2(C)[C@@H]3CN(Cc4ccccc4)C[C@@H]3C(=O)N12`, the EC50 is above 214 µM and the 50% inhibitory concentration (IC50) is above 214 µM. For `S=c1[nH]nc2ccccn12`, the EC50 is above 200 µM and the IC50 is above 200 µM. In the case of `Cc1ccc2c(c1)nc1c3ccccc3nc(-c3ccccc3N)n21`, the EC50 was above 28.8 µM and the IC50 is above 28.8 µM.

As to `N=C(N)c1ccc(/C=C/c2ccc(C(=N)N)cc2O)cc1`, the EC50 was above 1450 µM and the half-maximal inhibitory concentration (IC50) came out at 55 µM. Regarding `O=C1C=CC(=O)N1Nc1ccc([N+](=O)[O-])cc1[N+](=O)[O-]`, the EC50 was above 200 µM and the half-inhibitory concentration (IC50) worked out at 110 µM. For `CN1C(=O)N(C)C(O)C1O` (stereo not given), the EC50 was above 200 µM and the 50% inhibitory concentration (IC50) was above 200 µM. In the case of `CCOc1cc2c(cc1OC)c[n+](C)c1c3cc(OC)c(OC)cc3ccc21`, the result was inactive. Consider `CCOC(=O)c1c(NC(=O)c2ccccc2)sc2c1CCC2`, for which the EC50 was above 151 µM and the IC50 was above 151 µM. For the molecule `Cc1[nH]n(-c2ncc(C(=O)O)c(=O)[nH]2)c(=O)c1CCO`, the EC50 was above 200 µM and the IC50 was above 200 µM.

With `CCOC(=O)Oc1c(Cl)cc(C(=CCC[C@H]2CC[C@@]3(C)[C@@H](CC[C@@H]4[C@@H]3CC[C@]3(C)[C@@H](C(C)CCCC(C)C)CC[C@@H]43)C2)c2cc(Cl)c(OC(=O)OCC)c(C(=O)OCC)c2)cc1C(=O)OCC` (stereo not given in full), the result was inactive. As for `CCCCCCCCSC(=O)NCCCC`, the result was inactive. For `N#C/C(=C/N1CCNC1=S)C(N)=O`, the EC50 was above 200 µM and the IC50 is above 200 µM.

Consider `Cc1ccc(NC(Nc2ccc(C)cc2C)=C(C(Cl)=C(Cl)Cl)[N+](=O)[O-])c(C)c1`, for which the EC50 was above 200 µM and the IC50 came to 7.94 µM. As for `COCOc1ccc(C(=O)C(C)c2ccc(OCOC)cc2OCOC)c(O)c1` (stereo not given), the EC50 is above 200 µM and the half-maximal inhibitory concentration (IC50) is 25.7 µM. The corresponding values for `Cc1nn2c(nnn2CCO)c1-c1ccccc1` are above 1020 µM and 407 µM.

Consider `[N-]=[N+]=Nc1nc2ccccc2c(N=[N+]=[N-])c1Cl`, for which the EC50 is above 200 µM and the IC50 was 132 µM.

Turning to `CC(=O)CCCC(CC(C)O)[Si](C)(C)C` (stereo not given), the EC50 was above 1070 µM and the IC50 was determined as 562 µM. For `Cc1ccc(NC(=O)CSc2nnc(Cc3ccccc3)o2)cc1`, the EC50 is above 55 µM and the half-inhibitory concentration (IC50) is above 55 µM.

As to `O=C(O)CN(c1ccccc1)S(=O)(=O)c1ccc(NC(=O)c2ccccc2)cc1`, the result was inactive.

Regarding `O=[N+]([O-])c1ccc(-n2nnc3ccccc32)nc1`, the EC50 is above 200 µM and the concentration for half-maximal inhibition (IC50) was above 200 µM. Take `CCOC(=O)C(=O)C(/C(=N/N(C)C)C(=O)Nc1ccc(C)cc1C)c1nc2ccccc2[nH]c1=O` (stereo not given): the EC50 is above 380 µM and the IC50 was 219 µM. Consider `CCOC(=O)C1=C(C)NC2=C(C(=O)N(c3ccccc3)C2c2ccccc2)C1c1ccccc1` (stereo not given), for which the EC50 was above 41.7 µM and the 50% inhibitory concentration (IC50) was above 41.7 µM. Regarding `CNC(=O)N(CCC#N)CCCN(C(=O)N(C)C)c1ccccc1`, the EC50 is above 200 µM and the IC50 was above 200 µM. On to `Cc1cc(=O)oc2c(C3=NN(C=O)C(c4ccccc4)C3)c(O)ccc12` (stereo not given), for which the result was inactive. As for `CC(C)OP(=O)(OC(C)C)C([CH2][Sn]([CH3])([CH3])[Cl])P(=O)(OC(C)C)OC(C)C`, the EC50 is above 457 µM and the half-maximal inhibitory concentration (IC50) was found to be 8.32 µM. The corresponding values for `CNC(=O)C(C)C1C(=O)/C(=C(O)/C=C\C(C)=C\C(C)C2OC3(C)OC(C=CC34CO4)C2C)C(=O)N1C1CCC(O)C(C)O1` (stereo not given) are above 31.6 µM and above 31.6 µM.

As to `C[C@]12CCNC(=O)C=C1CC[C@@H]1C2CC[C@@]2(C)C1CC[C@@H]2O` (stereo not given in full), the outcome was inactive.

For `COc1ccc(-c2nc3ccccc3c(=S)n2OC(C)=O)cc1`, the EC50 was above 200 µM and the IC50 is 1.7 µM. As to `C/C(=N\NC(N)=S)c1ccc(Oc2ccccc2)cc1`, the outcome was inactive. In the case of `CCCCc1ccc(OC2OC(COC(C)=O)C(OC(C)=O)C(OC(C)=O)C2OC(C)=O)cc1` (stereo not given), the EC50 was above 93.3 µM; the IC50 was 49 µM and > 93.3 µM. For `CN(C)CCNC(c1ccccc1)C(O)c1ccccc1` (stereo not given), the outcome was inactive.

As for `CN(C)CCOC1(Cc2ccc(Cl)cc2Cl)CCC(C(C)(C)C)CC1` (stereo not given), the EC50 is above 200 µM; the half-maximal inhibitory concentration (IC50) was 2.14 µM and 3.72 µM.

As for `CC(C)C1COC(c2ccc3ccccc3c2-c2c(O[Si](C)(C)C(C)(C)C)ccc3ccccc23)=N1` (stereo not given), the EC50 is above 7.59 µM and the IC50 was above 7.59 µM.

In the case of `CN(C)N=Nc1cccc(C(N)=O)c1`, the EC50 is above 646 µM and the 50% inhibitory concentration (IC50) was found to be 145 µM. The matching figures for `C=C1CC2(CCS(=O)(=O)c3ccccc32)OC1=O` (stereo not given): above 355 µM and 1.51 µM. The corresponding values for `Cc1cc(C2(c3cc(C)c(O)c(CN(CC(=O)O)CC(=O)O)c3)OS(=O)(=O)c3ccccc32)cc(CN(CC(=O)O)CC(=O)O)c1O` are 93.3 µM and above 100 µM.

On to `CCN(CC)CCOC(=O)c1ccc(NC(=O)CN(CC)CC)cc1`, for which the EC50 is above 200 µM and the half-maximal inhibitory concentration (IC50) was above 200 µM. Turning to `O=[N+]([O-])c1c(Cl)ccc2nsnc12`, the EC50 is above 316 µM and the IC50 amounted to 2.04 µM.

As to `COc1cc2ccnc3c2c(c1OC)CC1CC(O)C(OC)CC31` (stereo not given), the result was inactive.

With `Cc1nc(Nc2nc3ccccc3[nH]2)nc(Cl)c1CCCl`, the result was inactive.

For `Nc1ccc(C(=O)NN2C(=O)C(Cl)C2c2cc(Br)ccc2O)cc1` (stereo not given), the EC50 is above 200 µM and the IC50 was 30.9 µM. With `NC(=O)NN=C1CCC(CC2CCCCC2)CC1` (stereo not given), the EC50 was above 200 µM and the 50% inhibitory concentration (IC50) is 174 µM. The corresponding values for `O=P(O)(O)c1ccc(-c2ccc(I)cc2)cc1` are above 200 µM and above 200 µM.

In the case of `O=C1C(=O)N(c2ccc(Cl)cc2)C(=O)C(=Nc2cccc3c(=O)[nH][nH]c(=O)c23)C1c1nc2ccccc2o1` (stereo not given), the outcome was inactive. Take `O=C(c1ccccc1)N1C2CCC1C(C(F)(F)F)=C2C(F)(F)F`: the result was inactive. Consider `CN1C(=O)CCCCCCCCCCSc2ccccc21`, for which the EC50 was above 200 µM and the half-maximal inhibitory concentration (IC50) stood at 40.7 µM.

Values taken from PubChem BioAssay AID179 (DTP/NCI, 2004).
